For data set [1], the system named is Pyricularia oryzae. In words: microbe, parasite or virus in culture. It counts as cell-based. To be noted: for Observed activity: Pyrior, single active compound.
For data set [2], the system named is Septoria tritici. In words: Activity against the Septoria leaf spot pathogen Septoria tritici in the microtiter test (Septtr). It is filed as cell-based. The following applies: single active compound; for inhibition of growth at 0.063 ppm: conc 0.063 ppm; for inhibition of growth at 0.004 ppm: conc 0.004 ppm; for inhibition of growth at 0.016 ppm: conc 0.016 ppm.

For data set [3], the system named is Botrytis cinerea. As to the kind of experiment: Activity against the gray mold pathogen Botrytis cinerea in the microtiter test (Botrci). The following applies: for inhibition of growth at […]: conc 0.25 ppm; for inhibition of growth at 0.016 ppm: conc 0.016 ppm. It counts as cell-based.
Data set [4] concerns Fusarium culmorum. As to the kind of experiment: Activity against Fusarium culmorum in the microtiter test (Fusacu). It is filed as cell-based. The following applies: single active compound; for inhibition of growth at 0.063 ppm / inhibition of growth at […] / inhibition of growth at 16 ppm / inhibition of growth at 4 ppm / inhibition of growth at 1 ppm: Fusarium culmorum, 168 h, read-out: Observed activity; for inhibition of growth at […]: 0.25 ppm.

Data set [5] has as its system Phytophthora infestans. As to the kind of experiment: microbe, parasite or virus in culture. It counts as cell-based.
Setting [6] is: Pyricularia oryzae, 168 h, read-out: Observed activity.
The mark [7] stands for this setting: Zymoseptoria tritici, 168 h, read-out: Observed activity.
[8] abbreviates: Zymoseptoria tritici, 168 h, conc 0.25 ppm, read-out: Observed activity.
[9] abbreviates: Botrytis cinerea, 168 h, read-out: Observed activity.
Where [10] appears, read: Botrytis cinerea, 168 h, conc 1 ppm, read-out: Observed activity.
Where [11] appears, read: Botrytis cinerea, 168 h, conc 4 ppm, read-out: Observed activity.
Setting [12] is: Botrytis cinerea, 168 h, conc 0.063 ppm, read-out: Observed activity.
The mark [13] stands for this setting: Phytophthora infestans, 168 h, read-out: Observed activity.
Setting [14] is: Zymoseptoria tritici, 168 h, conc 1 ppm, read-out: Observed activity.

Where two headings read alike, the source gives them in different places.

For `CC1CN(C2CCCCCCCCCCC2)CC(C)O1` (centres unmarked) [dodemorph], the inhibition of growth at 4 ppm in data set [1] (setting [6]) came out at 1%; in data set [2] (Zymoseptoria tritici, 168 h, conc 4 ppm, read-out: Observed activity) it was 23%; in data set [3] (setting [11]) it was 33%. Moreover, the inhibition of growth at 0.063 ppm in data set [2] (setting [7]) stood at 0%. Moreover, the inhibition of growth at […] was found to be 0% in data set [2] (setting [8]) and 7% in data set [3] (setting [9]). Further, in data set [3] (setting [10]), the inhibition of growth at 1 ppm was 9%.
Regarding `CC1(C)CCC(Cc2ccc(Cl)cc2)C1(O)Cn1cncn1` (centres unmarked) [metconazole], in data set [2] (setting [7]), the inhibition of growth at 0.004 ppm was found to be 0% and the inhibition of growth at 0.016 ppm worked out at 23%. Also, in data set [3] (setting [12]), the inhibition of growth at 0.063 ppm worked out at 31%. In data set [4], the inhibition of growth at 0.063 ppm worked out at 0% and the inhibition of growth at […] is 37%.
Consider `CCCC1COC(Cn2ncnc2S)(c2ccc(Cl)cc2Cl)O1` (centres unmarked) [I-17, 2-[2-(2,4-dichlorophenyl)-4-propyl-[1,3]dioxolan-2-ylmethyl]-2H-[1,2,4]triazole-3-thiol], for which the inhibition of growth at […] in data set [2] (setting [8]) stood at 38%. In data set [3] (setting [11]), the inhibition of growth at 4 ppm is 33%. Further, in data set [4] (16 ppm), the inhibition of growth at 16 ppm was 7%.
On to `N#Cc1c(Cl)c(Cl)c(Cl)c(C#N)c1Cl` [chlorothalonil], for which the inhibition of growth at 0.016 ppm is 0% in data set [1] (setting [6]), 8% in data set [2] (setting [7]) and 2% in data set [3] (setting [9]).
On to `CO/N=C(/C(=O)OC)c1ccccc1COc1ccccc1C` [kresoxim-methyl], for which the inhibition of growth at 1 ppm in data set [5] (setting [13]) worked out at 47%; in data set [3] (setting [10]), 17%. In addition, the inhibition of growth at […] in data set [3] (setting [9]) was found to be 3%.
On to `CNC(=O)/C(=N/OC)c1ccccc1CO/N=C(C)/C(=N/OC)C(/C)=N/OC` [orysastrobin], for which, in data set [3] (conc 0.063 ppm), the Observed activity turned out to be 1%.
On to `O=c1c2cc(F)ccc2nc(-n2cncn2)n1-c1ccc(Cl)cc1Cl` [fluquinconazole], for which the inhibition of growth at 4 ppm in data set [4] (4 ppm) was 0%.
`Cc1cc(C)nc(Nc2ccccc2)n1` [pyrimethanil]: in data set [2] (setting [14]), the inhibition of growth at 1 ppm was 0%. Also, the inhibition of growth at 0.063 ppm in data set [3] (setting [12]) was 7%. For the same molecule, in data set [4] (4 ppm), the inhibition of growth at 4 ppm is 3%.
Regarding `CCCCCCCCc1c(CC)nc2ncnn2c1N` [5-ethyl-6-octyl-[1,2,4]triazolo[1,5-a]pyrimidin-7-ylamine], the inhibition of growth at 1 ppm was 0% in data set [2] (setting [14]) and 6% in data set [3] (setting [10]).
In general, melting point refers to the temperature of the solid-liquid transition. As for `CC1(C)CCC(Cc2ccc(Cl)cc2)C1(O)Cn1ncnc1S` (centres unmarked) [I-4, 5-(4-chlorobenzyl)-1-(5-mercapto-[1,2,4]triazol-1-ylmethyl)-2,2-dimethylcyclopentanol], the melting point is 186 to 196 °C. Also, in data set [1] (setting [6]), the inhibition of growth at 4 ppm was found to be 3%. For the same molecule, in data set [2] (setting [8]), the inhibition of growth at […] stood at 63%. The inhibition of growth at 1 ppm in data set [2] (setting [14]) amounted to 68%. Further, the inhibition of growth at 1 ppm in data set [3] (setting [10]) came out at 28%. In addition, in data set [4] (16 ppm), the inhibition of growth at 16 ppm was 3%.
On to `COc1cc(C)c(C(=O)c2c(OC)ccc(Br)c2C)c(OC)c1OC` [metrafenone], for which the inhibition of growth at 1 ppm in data set [1] (setting [6]) was 11%; in data set [3] (setting [10]), 0%.
With `CC(C1CC1)C(O)(Cn1ncnc1S)c1ccc(Cl)cc1` (centres unmarked) [I-23], the Observed activity in data set [2] (conc 1 ppm) is listed as 7; in data set [2] (conc 4 ppm) it was 9; in data set [3] (conc 16 ppm) it was 26%.
As to `O=C(NCCc1ncc(C(F)(F)F)cc1Cl)c1ccccc1C(F)(F)F` [fluopyram], in data set [3] (setting [9]), the inhibition of growth at 0.016 ppm is 0%. The inhibition of growth at 0.063 ppm in data set [3] (setting [12]) was found to be 0%. Further, the inhibition of growth at […] in data set [4] came to 0%.
For the molecule `OC(Cc1ccccc1Cl)(Cn1nc[nH]c1=S)C1(Cl)CC1` (centres unmarked) [prothioconazole], the inhibition of growth at 0.004 ppm in data set [2] (setting [7]) was found to be 0%. Also, the inhibition of growth at 0.016 ppm in data set [3] (setting [9]) is 5%. For the same molecule, the inhibition of growth at 0.063 ppm in data set [3] (setting [12]) was found to be 17%. In data set [4], the inhibition of growth at […] amounted to 0%.
For `OC(Cn1cncn1)(c1ccc(F)cc1)c1ccccc1F` (centres unmarked) [flutriafol], in data set [2] (setting [8]), the inhibition of growth at […] was 3%. Besides, the inhibition of growth at 4 ppm in data set [3] (setting [11]) was 14%. Moreover, the inhibition of growth at 16 ppm was 42% in data set [3] (Botrytis cinerea, 168 h, conc 16 ppm, read-out: Observed activity) and 29% in data set [4] (16 ppm).
Take `CC(Cc1ccc(C(C)(C)C)cc1)CN1C[C@@H](C)O[C@@H](C)C1` (some centres unmarked) [fenpropimorph]: the inhibition of growth at 1 ppm in data set [1] (setting [6]) stood at 14%; in data set [4], 9%. Moreover, the inhibition of growth at 0.063 ppm in data set [5] (setting [13]) was 4%; in data set [2] (setting [7]) it was 3%; in data set [3] (setting [12]), 16%. The results for the inhibition of growth at […] in data set [2] (setting [8]) and in data set [3] (setting [9]) were 2% and 26%, respectively.
For `O=C(Nc1ccccc1-c1ccc(Cl)cc1)c1cccnc1Cl` [II-24, boscalid], the inhibition of growth at 4 ppm in data set [1] (setting [6]) and in data set [4] (4 ppm) was 0% throughout. The inhibition of growth at […] in data set [2] (setting [8]) is 59%.
In the case of `CCCCCCCCc1c(CC)nc2ncnn2c1N` [5-ethyl-6-octyl-[1,2,4]triazolo-[1,5-a]pyrimidin-7-ylamine], the inhibition of growth at 4 ppm in data set [4] (4 ppm) came out at 2%.
With `CCCC(Cn1ncnc1S)c1ccc(Cl)cc1Cl` (centres unmarked) [I-16, 2-[2-(2,4-dichlorophenyl)pentyl]-2H-[1,2,4]triazole-3-thiol], the inhibition of growth at 1 ppm in data set [1] (setting [6]) is 1%. For the same molecule, the inhibition of growth at 16 ppm in data set [5] (setting [13]) was determined as 47%; in data set [4] (16 ppm) it was 6%. In addition, in data set [3] (setting [11]), the inhibition of growth at 4 ppm is 31%.
As for `Cn1cc(C(=O)Nc2ccccc2-c2cc(F)c(F)c(F)c2)c(C(F)F)n1` [N-(3′,4′,5′-trifluorobiphenyl-2-yl)-3-difluoromethyl-1-methyl-1H-pyrazole-4-carboxamide], in data set [2] (setting [7]), the inhibition of growth at 0.004 ppm stood at 4%. In addition, the inhibition of growth at 0.016 ppm in data set [3] (setting [9]) turned out to be 9%.
For `COCC(=O)N(c1c(C)cccc1C)C(C)C(=O)OC` (centres unmarked) [metalaxyl], the values for the inhibition of growth at 1 ppm in data set [1] (setting [6]), in data set [5] (setting [13]) and in data set [3] (setting [10]) were 2%, 5% and 5%, respectively. For the same molecule, the inhibition of growth at 0.016 ppm in data set [2] (setting [7]) was determined as 0%. Besides, the results for the inhibition of growth at […] in data set [2] (setting [8]) and in data set [3] (setting [9]) were 0% and 1%, respectively.
Regarding metiram, the values for the Observed activity in data set [1] (conc 1 ppm), in data set [1] (conc 16 ppm) and in data set [2] (conc 1 ppm) were 6, 36 and 17, respectively.
Regarding mancozeb, the Observed activity is reported as 67 in data set [1] (conc 4 ppm); 23% in data set [5] (conc 1 ppm); 23 in data set [2] (conc 4 ppm); 8% in data set [3] (conc 1 ppm); 0% in data set [4] (4 ppm).
With `CC(C)NC(=O)N1CC(=O)N(c2cc(Cl)cc(Cl)c2)C1=O` [iprodione], the inhibition of growth at 1 ppm in data set [1] (setting [6]) is 24%; in data set [4], 3%. Also, the inhibition of growth at 0.063 ppm in data set [2] (setting [7]) was 11%.
On to “1-(4-chlorophenyl)-3-(5-mercapto-[1,2,4]triazol-1-ylmethyl)-4,4-dimethylpentan-3-ol [I-9]”, for which the Observed activity turned out to be 57 in data set [1] (conc 16 ppm); 52% in data set [5] (conc 16 ppm); 20 in data set [2] (conc 1 ppm); 64 in data set [2] (conc 4 ppm); 23% in data set [3] (conc 4 ppm); 4% in data set [4] (16 ppm).
In the case of `CCCCC(C#N)(Cn1ncnc1S)c1ccc(Cl)cc1` (centres unmarked) [I-10, 2-(4-chlorophenyl)-2-(5-mercapto-[1,2,4]triazol-1-ylmethyl)hexanenitrile], the inhibition of growth at 16 ppm in data set [1] (setting [6]) worked out at 8%. Also, the inhibition of growth at 4 ppm in data set [5] (setting [13]) is 2%. Moreover, in data set [2] (setting [14]), the inhibition of growth at 1 ppm amounted to 2%.
Regarding `COC(=O)NC(=S)Nc1ccccc1NC(=S)NC(=O)OC` [thiophanate-methyl, thiophanate methyl], the inhibition of growth at 1 ppm was 4% in data set [1] (setting [6]) and 7% in data set [5] (setting [13]).
Turning to `CC1(C)CCC(=Cc2ccc(Cl)cc2)C1(O)Cn1cncn1` (centres unmarked) [triticonazole], the inhibition of growth at 0.063 ppm in data set [2] (setting [7]) turned out to be 13%. Also, the inhibition of growth at […] in data set [3] (setting [9]) was determined as 29%. Also, the inhibition of growth at 1 ppm in data set [4] is 17%.
For the molecule `CC(C)(C)C(O)(CCc1ccc(Cl)cc1)Cn1cncn1` (centres unmarked) [tebuconazole], the inhibition of growth at 0.004 ppm in data set [1] (setting [6]) stood at 4%. The inhibition of growth at 0.063 ppm in data set [5] (setting [13]) was found to be 3%.
Turning to `COC(=O)N(OC)c1ccccc1COc1ccn(-c2ccc(Cl)cc2)n1` [pyraclostrobin], the inhibition of growth at 0.004 ppm came to 25% in data set [1] (setting [6]) and 44% in data set [2] (setting [7]). For the same molecule, the results for the inhibition of growth at 0.016 ppm in data set [1] (setting [6]), in data set [5] (setting [13]) and in data set [2] (setting [7]) were 54%, 13% and 75%, respectively. The figures for the inhibition of growth at 0.063 ppm in data set [5] (setting [13]) and in data set [4] were 26% and 0%, respectively. The inhibition of growth at […] in data set [2] (Zymoseptoria tritici, 168 h, conc 0.00025 ppm, read-out: Observed activity) was 5%.
`Fc1ccc([C@]2(Cn3cncn3)O[C@H]2c2ccccc2Cl)cc1` (racemic) [epoxiconazole]: in data set [2] (setting [7]), the inhibition of growth at 0.004 ppm was determined as 4% and the inhibition of growth at 0.016 ppm worked out at 47%. Moreover, in data set [3] (setting [9]), the inhibition of growth at 0.016 ppm was 7%. Further, the inhibition of growth at 0.063 ppm in data set [3] (setting [12]) was 25%. Also, the inhibition of growth at […] in data set [4] is 0%.

For the origin of these results see patent publication US20120088665A1, “FUNGICIDAL MIXTURES” (BASF SE, priority 2009, published 2012).
